Data from BigSolDB 2.1.

O=CC(NS(=O)(=O)[O-])C(O)C(O)C(O)CO.[Na+] (stereo unspecified)
solubility (mole fraction)
Settings | 288.15 K | 293.15 K | 298.15 K | 303.15 K | 308.15 K | 313.15 K | 318.15 K
in ethanol | 8e-05 | 0.00012 | 0.00021 | 0.00027 | 0.00035 | 0.00046 | 0.00055
in methanol | 0.0004 | 0.00046 | 0.00052 | 0.00058 | 0.00064 | 0.0007 | 0.00076
in water | 0.0315 | 0.0345 | 0.0388 | 0.0444 | 0.0514 | 0.0601 | 0.0727
